The PolyMetriX glass transition set
± gives the standard deviation of the reports.

SMILES	glass transition temperature [°C]
*[Si](*)(C)c1ccc(COCCN(CC)c2ccc(/N=N/c3ccc([N+](=O)[O-])cc3)cc2)cc1 (repeat unit)	152.00
*Oc1cc(Oc2ccc(C(C)(C)c3ccc(*)cc3)cc2)cc([N+](=O)[O-])c1 (repeat unit)	150.00
*c1cc(CCCCCC)c(*)s1 (repeat unit)	15.2 ± 7.3
*CC(*)C1CCCCC1 (repeat unit) [poly(vinylcyclohexane)]	104.78 ± 28
*CCCCCCN1C(=O)c2ccc(C(=O)Oc3ccc(-c4ccc(OC(=O)c5ccc6c(c5)C(=O)N(*)C6=O)cc4)cc3)cc2C1=O (repeat unit)	133.00
*c1ccc(C(=O)OCCCCCCCCOC(=O)c2ccc(-c3nnc(*)s3)cc2)cc1 (repeat unit)	86.00
*C(=O)Nc1ccc(Oc2ccc(Oc3ccc(NC(=O)c4ccc5c(c4)C(=O)N(c4ccc(Oc6cccc7c(Oc8ccc(N9C(=O)c%10ccc(*)cc%10C9=O)cc8)cccc67)cc4)C5=O)cc3)cc2)cc1 (repeat unit)	285.00
*/C=C/C(C(=O)OCc1ccccc1)C(*)C(=O)OCc1ccccc1 (repeat unit)	21.00
*CC(*)c1ccc(C(O)CCN(C)C)cc1 (repeat unit)	43.00
*Oc1ccc(Oc2ccc(C(=O)c3ccc(*)cc3)cc2)cc1S(=O)(=O)O (repeat unit)	225.00
*CC(O)COc1ccc(C(C)(C)c2ccc(OCC(O)COc3cccc(NC(=O)CCCC(=O)Nc4cccc(O*)c4)c3)cc2)cc1 (repeat unit)	111.00
*c1cc(C(=O)OCCCCCCCCCCOc2ccc(-c3ccc(OC(=O)c4ccc(OCC(F)CCCCCC)cc4)cc3)cc2)c(*)s1 (repeat unit)	151.00
*Oc1ccc(CC(NC(=O)CCc2ccc(OC(=O)CCCCCCCCC(*)=O)cc2)C(=O)OCc2ccccc2)cc1 (repeat unit)	42.00
*O[Si](C)(CCC(F)(F)F)O[Si](C)(CCC(F)(F)F)O[Si](C)(CCC(F)(F)F)CCC(F)(F)C(F)(F)C(F)(F)C(F)(F)C(F)(F)C(F)(F)CC[Si](*)(C)CCC(F)(F)F (repeat unit)	-43.00
*C(=O)OCCN(CCOC(=O)c1ccc2c(c1)C(=O)N(c1c(C)cc(Cc3cc(C)c(N4C(=O)c5ccc(*)cc5C4=O)c(C)c3)cc1C)C2=O)c1ccc(/N=N/c2ccc([N+](=O)[O-])cc2[N+](=O)[O-])cc1 (repeat unit)	176.00
*c1ccc2c(c1)C(=O)N(c1ccc(OCCN(CCOc3ccc(N4C(=O)c5ccc(C(*)(C(F)(F)F)C(F)(F)F)cc5C4=O)cc3)c3ccc(C(C#N)=C(C#N)C#N)cc3)cc1)C2=O (repeat unit)	218.00
*Oc1ccc(C(=O)c2ccc(*)cc2)cc1 (repeat unit)	154.00
*C(=O)Nc1cccc(C(=O)Nc2cccc(NC(=O)c3ccc4[nH]c(-c5cccc(-c6nc7cc(*)ccc7[nH]6)c5)nc4c3)c2)c1 (repeat unit)	331.00
*CC(*)C(=O)OCCCCCCC (repeat unit)	-60.00
*Cc1cc(CNC(=O)c2cccc(C(=O)N*)c2)cc(C(C)(C)C)c1 (repeat unit)	188.00
*c1ccc(C(C)(C)c2ccc(N3C(=O)c4ccc(Oc5ccc6cc(Oc7ccc8c(c7)C(=O)N(*)C8=O)ccc6c5)cc4C3=O)cc2)cc1 (repeat unit)	236.00
*/C(=C(/*)c1ccc(C(C)(C)C)cc1)c1ccccc1 (repeat unit)	200.00

SMILES	glass transition temperature [°C]
*CCN(*)C(=O)CCCCCCCCCCCCCCCCC (repeat unit)	10.00
*c1ccc2oc(-c3cc(OCCCCCCCCCC)c(-c4nc5cc(C(*)(C(F)(F)F)C(F)(F)F)ccc5o4)cc3OCCCCCCCCCC)nc2c1 (repeat unit)	94.00
*c1ccc(C(=O)NCCCCCCNC(=O)c2ccc(-c3nc4ccccc4nc3*)cc2)cc1 (repeat unit)	201.00
*c1ccc2c(c1)Sc1cc(-c3ccc(-c4ccc(*)s4)s3)ccc1N2CCCCCCCCCCCC (repeat unit)	150.00
*Cc1ccccc1[Si](*)(C)C (repeat unit)	48.00
*C(=O)Nc1nc(NC(=O)c2ccc3c(c2)C(=O)N(c2ccc(Oc4cccc5c(N6C(=O)c7ccc(*)cc7C6=O)cccc45)cc2)C3=O)nc(-c2ccccc2)n1 (repeat unit)	291.00
*c1ccc(Sc2ccc(-n3c(=O)c4cc5c(=O)n(*)c(=O)c5cc4c3=O)cn2)nc1 (repeat unit)	359.00
*CC(*)(C)C(=O)OCCCCOc1ccc(OC(=O)c2ccc(OCCCC)cc2)cc1 (repeat unit)	51.00
*c1ccc(-c2ccc(Oc3ccc(C4(C)CC(C)(C)c5ccc(Oc6ccc(-c7ccc(N8C(=O)c9ccc(Oc%10ccc%11c(c%10)C(=O)N(*)C%11=O)cc9C8=O)cc7)cc6C(F)(F)F)cc54)cc3)c(C(F)(F)F)c2)cc1 (repeat unit)	249.00
*SC(*)(F)F (repeat unit)	-118.00
*CCc1ccc(*)s1 (repeat unit)	26.00
*Oc1ccc(S(=O)(=O)c2ccc(-c3ccc(-c4ccc(S(=O)(=O)c5ccc(Oc6ccc(-c7ccc(*)cc7)cc6)cc5)cc4)cc3)cc2)cc1 (repeat unit)	264.00
*Nc1ccc(CC(C)(C)NC(=O)CCC(*)=O)cc1 (repeat unit)	158.00
*Oc1c(C)cc(C(=O)c2ccc(*)cc2)cc1C (repeat unit)	200.00
*CC(*)OC(=O)c1ccccc1Cl (repeat unit)	55.8
*C(=O)Nc1ccc(S(=O)(=O)c2ccc(NC(=O)c3ccc(N4C(=O)c5ccc(*)cc5C4=O)cc3)cc2)cc1 (repeat unit)	252.00
*Oc1ccc(C2(c3ccc(OC(*)=O)cc3)CC3CC2C2C4CCC(C4)C32)cc1 (repeat unit)	267.50
*Oc1ccc(C(C)(C)c2ccc(OC(*)=S)cc2)cc1 (repeat unit)	140.50
*C(=O)CCCCCCCCC(=O)N1CC(C)N(*)CC1C (repeat unit)	-60.50
*Oc1ccc(OC(=O)c2ccc(C(*)=O)cc2)cc1CCC(C)CC (repeat unit)	237.00
*CC(*)c1ccc(-c2ccccc2)cc1 (repeat unit) [Poly(p-phenyl styrene) ]	138 ± 14
*CC1CCCC(CN2C(=O)c3ccc(C(=O)c4ccc5c(c4)C(=O)N(*)C5=O)cc3C2=O)C1 (repeat unit)	213.00

SMILES	glass transition temperature [°C]
*C(=O)Nc1ccc(Oc2ccc(C3(c4ccc(Oc5ccc(NC(=O)c6ccc7c(c6)C(=O)N(c6ccc(Oc8ccc(Oc9ccc(N%10C(=O)c%11ccc(*)cc%11C%10=O)cc9)c(C)c8)cc6)C7=O)cc5)cc4)NC(=O)c4ccccc43)cc2)cc1 (repeat unit)	293.00
*CC(*)c1ccc(CCCCCCCC)cc1 (repeat unit)	-45.00
*CC(*)(C)C(=O)OCC1COCCOCCOCCO1 (repeat unit)	35.00
*C(=O)N1C(=S)N(C(=O)c2ccc3c(c2)C(=O)N(c2ccc(Oc4ccc(N5C(=O)c6ccc(*)cc6C5=O)cc4)cc2)C3=O)C(C)=C(C(=O)OCC)C1c1ccc(OC)cc1OC (repeat unit)	165.00
*CC(*)C(=O)Oc1ccc(C(=O)OCCCC)cc1 (repeat unit)	13.00
*Oc1cc(C(C)(C)c2ccccc2)c(OC(=O)c2cccc(C(*)=O)c2)cc1C(C)(C)c1ccccc1 (repeat unit)	180.00
*CC(*)OCCOc1ccc(/N=N/c2ccc([N+](=O)[O-])cc2)cc1 (repeat unit)	54.00
*c1ccc2c(c1)C(=O)N(c1c(C)cc(C(c3cccc(C(F)(F)F)c3)c3cc(C)c(N4C(=O)c5ccc(C(*)(C(F)(F)F)C(F)(F)F)cc5C4=O)c(C)c3)cc1C)C2=O (repeat unit)	286.10
*c1ccc(-c2nc3ccc(Oc4ccc5nc(*)c(-c6ccccc6)c(-c6ccccc6)c5c4)cc3c(-c3ccccc3)c2-c2ccccc2)cc1 (repeat unit)	345.00
*Oc1ccc(OC(=O)c2cc(OCCCCCCCCOCC3CCCN3c3ccc([N+](=O)[O-])cc3)c(C(*)=O)cc2OCCCCCCCCOCC2CCCN2c2ccc([N+](=O)[O-])cc2)cc1 (repeat unit)	41.00
*Oc1ccc(P(=O)(c2ccccc2)c2ccc(*)cc2)cc1 (repeat unit)	240.00
*C1=C(c2ccc(-c3ccc4c(c3)C(CCCCCC)(CCCCCC)c3cc(-c5ccc(*)cc5)ccc3-4)cc2)C(=O)N(CCCC)C1=O (repeat unit)	155.00
*c1c(C)cc(Cc2cc(C)c(N3C(=O)c4ccc(Oc5cccc6c(Oc7ccc8c(c7)C(=O)N(*)C8=O)cccc56)cc4C3=O)c(C)c2)cc1C (repeat unit)	281.00
*Oc1ccc(OC(=O)c2ccc(OCCCCCCCCCCOc3ccc(C(*)=O)cc3)cc2)cc1S(=O)(=O)c1ccccc1 (repeat unit)	88.00
*Oc1cccc(NC(=O)CCCCCCCCC(=O)Nc2ccc(*)cc2)c1 (repeat unit)	125.00
*CC1CC(*)OCO1 (repeat unit) [Poly(vinyl formal) ]	104 ± 21
*c1cc(CC(=O)OCCCCCCOc2ccc(/N=N/c3ccc(C#N)cc3)cc2)c(*)s1 (repeat unit)	64.00
*CC(*)CCCCCCCC (repeat unit)	-35.00
*c1ccc(Nc2ccc(C(c3ccc(Nc4ccc(S(*)(=O)=O)cc4)cc3)(C(F)(F)F)C(F)(F)F)cc2)cc1 (repeat unit)	145.00
*C(=O)Oc1ccc(C23CC4CC(CC(C4)C2)C3)c(OC(=O)c2ccc3c(c2)C(=O)N(c2ccc(-c4ccc(N5C(=O)c6ccc(*)cc6C5=O)cc4C)c(C)c2)C3=O)c1 (repeat unit)	225.00
*Oc1cccc(Oc2ccc(S(=O)(=O)c3ccc(Oc4ccc(C(=O)c5ccc(*)cc5)cc4)cc3)cc2)c1 (repeat unit)	167.00
